Measured values: patent US20200138907A1, “Composition for Use in the Treatment of an Individual Suffering a Condition Necessitating New Bone Formation” (priority 2016, published 2020)

What was measured:
[1] = tested on: rabbits; assay: bone induction in intramuscularly implanted BCP constructs without BMP-2, biomembrane pocket model; type: in vivo, rabbit; conditions: TNF-α 1, 10, 100 ng, no BMP-2, intramuscular, 12 weeks
Experimental: First, an assessment study was performed to verify the potential for ectopic bone formation in the biomembrane pocket model. […] The bone volume (area%) in the BCP constructs was the primary outcome after 8 (rats) or 12 (rabbits) weeks. Subsequently, the rabbit model (n=11) was used to 1) screen for the potential of inflammatory stimuli to induce bone intramuscularly and to 2) screen for the effects of inflammatory stimuli on BMP-induced bone formation subcutaneously. The bone volume (area%) in the BCP constructs was the primary outcome after 12 weeks.
Fibrin glue (Tissucol 500®, Baxter, Deerfield, Ill., USA) was subsequently used (55 μl volume) to load the inflammatory mediators onto the constructs. […]
After shaving and disinfecting the skin with 10% povidone-iodine, a midline incision was made to expose the paraspinal muscles. […] The incorporation of fluorochromes in the bone was examined by fluorescence microscopy on methyl methacrylate-embedded sections. […]
After retrieval of the constructs, a quarter of each sample was removed for decalcification and paraffin embedding. […] The samples were completely sectioned and scored for the presence of bone. Two mid-sections were pseudo-coloured in Adobe Photoshop CS6 (Adobe Systems, San Jose, USA) to quantify the percentage of bone in the available pore space (bone area %). […]

[2] = tested on: rabbits; assay: BMP-2 induced bone formation in subcutaneously implanted BCP constructs, biomembrane pocket model; type: in vivo, rabbit
Experimental: For the comparative study (Table 2), inflammatory stimuli were added to the BCP, alone or in combination with BMP-2. Either 1.5 μg of BMP-2 or PBS (15 μl volume) was first applied. Fibrin glue (Tissucol 500®, Baxter, Deerfield, Ill., USA) was subsequently used (55 μl volume) to load the inflammatory mediators onto the constructs. For this purpose, the mediators were resuspended in 27.5 μl of the thrombin component (diluted 1:50 in PBS), then mixed with 27.5 μl of the fibrinogen component (diluted 1:30 in PBS) and immediately pipetted onto the BCP scaffolds. The control samples were treated with fibrin glue alone. The constructs were prepared on the day of surgery and stored in a humidified environment at 37° C. until implantation.
After shaving and disinfecting the skin with 10% povidone-iodine, a midline incision was made to expose the paraspinal muscles. In the rabbits, four intramuscular pockets were created on each side by blunt dissection for implantation of the PMMA discs (FIG. 2B). The same discs were implanted in subcutaneous pockets via the same approach. Pockets were closed with a non-resorbable suture (Prolene®, Ethicon, USA), followed by closure of the skin (Monocryl®, Ethicon). At the second surgery, an incision was made in the membrane surrounding the PMMA disc, the disc was replaced by a BCP construct, and the opening was sutured (Prolene®, Ethicon). […] Fluorochrome labels were injected subcutaneously to determine the onset and location of new bone formation (van Gaalen et al., 2010): calcein green (10 mg/kg s.c. in 0.2 M NaHCO3, Sigma), oxytetracycline (25 mg/kg s.c. in 50/50 PBS/demineralised water, Merck Millipore, Billerica, USA) xylenol orange (30 mg/kg s.c. in 0.12 M NaHCO3, Sigma). The incorporation of fluorochromes in the bone was examined by fluorescence microscopy on methyl methacrylate-embedded sections. The rabbits were killed 12 weeks after the second surgery under general anesthesia, by intravenous Pentobarbital (Euthanimal®, Alfasan Nederland BV, Woerden, The Netherlands). The rats were killed with CO2, 8 weeks after the second surgery.
After retrieval of the constructs, a quarter of each sample was removed for decalcification and paraffin embedding. The remaining material was fixed in 4% paraformaldehyde, dehydrated by an ethanol series and embedded in methyl methacrylate (MMA, Merck Millipore).

TNF-α
concentration dependence of bone induction [1]: no concentration dependence
number of constructs with bone formation [1]: 2 constructs
bone area % ([2]; 10 ng TNF-α with 1.5 μg BMP-2, subcutaneous, 12 weeks, p=0.005 vs control): 13.6±9.9 area %
4-week fluorochrome label (calcein) incorporation in bone ([2]; BCP constructs with 1.5 μg BMP-2 and 10 ng TNF-α vs BMP-2 alone): observed less frequently
8-week fluorochrome label (xylenol orange) incorporation in bone ([2]; BCP constructs with 1.5 μg BMP-2 and 10 ng TNF-α vs BMP-2 alone, gross examination): more abundant
effect on BMP-2 induced bone formation (in words) ([2]; all doses, with 1.5 μg BMP-2, subcutaneous, 12 weeks): stimulatory effect
bone formation at a higher concentration of TNF-α ([2]; higher than 10 ng TNF-α, with 1.5 μg BMP-2, subcutaneous, 12 weeks): reduction of bone formation
